Test results taken from ChEMBL document CHEMBL1201861, “Genomics of Drug Sensitity in Cancer screening data, Wellcome Trust Sanger Institute”.

Key:
ECC4 = experiment: cells; type: functional, cell-based; details: Homo sapiens;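 further: growth inhibition of ECC4 cells, read out with a cell viability assay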
Description: SANGER: Inhibition of human ECC4 cell growth in a cell viability assay.

EW-22 = experiment: cells; type: functional, cell-based; details: Homo sapiens;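 further: growth inhibition of the EW-22 cell line, measured with a cell viability readout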
Description: SANGER: Inhibition of human EW-22 cell growth in a cell viability assay.

GDM-1 = experiment: cells; type: functional, cell-based; details: Homo sapiens;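 further: cell viability readout used to measure growth inhibition of human GDM-1 cells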
Description: SANGER: Inhibition of human GDM-1 cell growth in a cell viability assay.

IM-9 = experiment: SANGER: Inhibition of human IM-9 cell growth in a cell viability assay.; type: functional, cell-based
K052 = experiment: cells; type: functional, cell-based; details: Homo sapiens;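 further: Read-out from a cell viability assay, IC50 reflecting suppression of K052 cell growth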
Description: SANGER: Inhibition of human K052 cell growth in a cell viability assay.

K5 = experiment: cells; type: functional, cell-based, Homo sapiens; details: Homo sapiens, K5
KARPAS-299 = experiment: cells; type: functional, cell-based; details: Homo sapiens
Description: SANGER: Inhibition of human KARPAS-299 cell growth in a cell viability assay.

KGN = experiment: cells; type: functional, cell-based, Homo sapiens; details: Homo sapiens, KGN;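 further: growth inhibition of KGN cells, read out with a cell viability assay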
LU-165 = experiment: cells; type: functional, cell-based; details: Homo sapiens
Description: SANGER: Inhibition of human LU-165 cell growth in a cell viability assay.

MHH-CALL-2 = experiment: cells; type: functional, cell-based; details: Homo sapiens;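 further: growth inhibition of the cell line, read out in a cell viability assay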
Description: SANGER: Inhibition of human MHH-CALL-2 cell growth in a cell viability assay.

MONO-MAC-6 = experiment: cells; type: functional, cell-based; details: Homo sapiens;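 further: cell viability assay measuring growth inhibition of human MONO-MAC-6 cells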
Description: SANGER: Inhibition of human MONO-MAC-6 cell growth in a cell viability assay.

NALM-6 = experiment: cells; type: functional, cell-based; details: Homo sapiens;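 further: growth inhibition of NALM-6 cells, read out with a cell viability assay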
Description: SANGER: Inhibition of human NALM-6 cell growth in a cell viability assay.

NCI-H187 = experiment: cells; type: functional, cell-based; details: Homo sapiens;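 further: growth inhibition of NCI-H187 cells, read out as cell viability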
Description: SANGER: Inhibition of human NCI-H187 cell growth in a cell viability assay.

NCI-H1963 = experiment: cells; type: functional, cell-based; details: Homo sapiens;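 further: cell growth inhibition of the human line, determined with a cell viability assay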
Description: SANGER: Inhibition of human NCI-H1963 cell growth in a cell viability assay.

NCI-H2141 = experiment: cells; type: functional, cell-based; details: Homo sapiens;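 further: growth inhibition of human NCI-H2141 cells, read out with a cell viability assay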
Description: SANGER: Inhibition of human NCI-H2141 cell growth in a cell viability assay.

NCI-H2227 = experiment: cells; type: functional, cell-based; details: Homo sapiens;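 further: growth inhibition of the human cell line, read out with a cell viability assay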
Description: SANGER: Inhibition of human NCI-H2227 cell growth in a cell viability assay.

NCI-H345 = experiment: cells; type: functional, cell-based; details: Homo sapiens;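 further: growth inhibition of NCI-H345 cells measured with a cell viability assay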
Description: SANGER: Inhibition of human NCI-H345 cell growth in a cell viability assay.

NCI-H524 = experiment: cells; type: functional, cell-based; details: Homo sapiens;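 further: growth inhibition of human NCI-H524 cells, read out through a cell viability assay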
Description: SANGER: Inhibition of human NCI-H524 cell growth in a cell viability assay.

NCI-H716 = experiment: cells; type: functional, cell-based; details: Homo sapiens;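 further: growth inhibition of human NCI-H716 cells, measured by a cell viability assay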
Description: SANGER: Inhibition of human NCI-H716 cell growth in a cell viability assay.

OPM-2 = experiment: cells; type: functional, cell-based; details: Homo sapiens;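 further: growth of OPM-2 cells measured with a viability assay, IC50 for suppression of proliferation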
Description: SANGER: Inhibition of human OPM-2 cell growth in a cell viability assay.

OS-RC-2 = experiment: cells; type: functional, cell-based, Homo sapiens; details: Homo sapiens, OS-RC-2;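 further: growth inhibition of human OS-RC-2 cells, measured by a cell viability assay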
Description: SANGER: Inhibition of human OS-RC-2 cell growth in a cell viability assay.

P31-FUJ = experiment: cells; type: functional, cell-based; details: Homo sapiens;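 further: growth inhibition of P31-FUJ cells, read out with a viability assay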
Description: SANGER: Inhibition of human P31-FUJ cell growth in a cell viability assay.

REH = experiment: cells; type: functional, cell-based; details: Homo sapiens;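 further: growth inhibition of REH cells determined with a cell viability read-out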
Description: SANGER: Inhibition of human REH cell growth in a cell viability assay.

RL = experiment: cells; type: functional, cell-based; details: Homo sapiens
Description: SANGER: Inhibition of human RL cell growth in a cell viability assay.

Raji = experiment: cells; type: functional, cell-based; details: Homo sapiens;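 further: cell viability assay measuring inhibition of Raji cell growth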
Description: SANGER: Inhibition of human Raji cell growth in a cell viability assay.

SK-MM-2 = experiment: cells; type: functional, cell-based; details: Homo sapiens;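 further: growth inhibition of human SK-MM-2 cells, read out with a cell viability assay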
Description: SANGER: Inhibition of human SK-MM-2 cell growth in a cell viability assay.

SNU-C1 = experiment: cells; type: functional, cell-based; details: Homo sapiens;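 further: growth inhibition of SNU-C1 human cells, read out by a cell viability assay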
Description: SANGER: Inhibition of human SNU-C1 cell growth in a cell viability assay.

8-MG-BA = experiment: cells; type: functional, cell-based, Homo sapiens; details: Homo sapiens, 8-MG-BA;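 further: growth inhibition of 8-MG-BA cells, read out with a cell viability assay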
Description: SANGER: Inhibition of human 8-MG-BA cell growth in a cell viability assay.

BC-3 = experiment: cells; type: functional, cell-based; details: Homo sapiens;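 further: cell viability assay measuring growth inhibition of human BC-3 cells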
Description: SANGER: Inhibition of human BC-3 cell growth in a cell viability assay.

C8166 = experiment: cells; type: functional, cell-based; details: Homo sapiens;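 further: growth inhibition of human C8166 cells measured by a cell viability assay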
Description: SANGER: Inhibition of human C8166 cell growth in a cell viability assay.

THP-1 = experiment: cells; type: functional, cell-based; details: Homo sapiens;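 further: growth inhibition of THP-1 cells, read out via a cell viability assay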
Description: SANGER: Inhibition of human THP-1 cell growth in a cell viability assay.

U-698-M = experiment: cells; type: functional, cell-based; details: Homo sapiens
Description: SANGER: Inhibition of human U-698-M cell growth in a cell viability assay.

WSU-NHL = experiment: cells; type: functional, cell-based; details: Homo sapiens;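 further: growth inhibition of human WSU-NHL cells, read out with a cell viability assay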
Description: SANGER: Inhibition of human WSU-NHL cell growth in a cell viability assay.

YT = experiment: cells; type: functional, cell-based; details: Homo sapiens
Description: SANGER: Inhibition of human YT cell growth in a cell viability assay.

CAS-1 = experiment: cells; type: functional, cell-based, Homo sapiens; details: Homo sapiens, CAS-1;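 further: growth inhibition of CAS-1 cells, measured with a cell viability assay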
CESS = experiment: SANGER: Inhibition of human CESS cell growth in a cell viability assay.; type: functional, cell-based

Row | Compound | IC50 (ECC4) [µM] | IC50 (EW-22) [µM] | IC50 (GDM-1) [µM] | IC50 (IM-9) [µM] | IC50 (K052) [µM] | IC50 (K5) [µM] | IC50 (KARPAS-299) [µM] | IC50 (KGN) [µM] | IC50 (LU-165) [µM] | IC50 (MHH-CALL-2) [µM] | IC50 (MONO-MAC-6) [µM] | IC50 (NALM-6) [µM] | IC50 (NCI-H187) [µM] | IC50 (NCI-H1963) [µM] | IC50 (NCI-H2141) [µM] | IC50 (NCI-H2227) [µM] | IC50 (NCI-H345) [µM] | IC50 (NCI-H524) [µM] | IC50 (NCI-H716) [µM] | IC50 (OPM-2) [µM] | also measured
1 | C=C1C(=O)O[C@@H]2C3O[C@]3(C)CC/C=C(\C)CC[C@@H]12 (stereo partly drawn) | > 5 | > 5 | > 5 | > 5 | > 5 | > 5 | > 5 | > 5 | > 5 | > 5 | > 5 | > 5 | > 5 | > 5 | > 5 | > 5 | > 5 | > 5 | > 5 | > 5 | IC50 (OS-RC-2): > 5 µM; IC50 (P31-FUJ): > 5 µM; IC50 (REH): > 5 µM; IC50 (RL): > 5 µM; IC50 (Raji): > 5 µM; IC50 (SK-MM-2): > 5 µM; IC50 (SNU-C1): > 5 µM; IC50 (8-MG-BA): > 5 µM; IC50 (BC-3): > 5 µM; IC50 (C8166): > 5 µM; IC50 (THP-1): > 5 µM; IC50 (U-698-M): > 5 µM; IC50 (WSU-NHL): > 5 µM; IC50 (YT): > 5 µM; IC50 (CAS-1): > 5 µM; IC50 (CESS): > 5 µM
2 | CCc1nc(N)nc(N)c1-c1ccc(Cl)cc1 [PYRIMETHAMINE] | > 20 | > 20 | > 20 | > 20 | > 20 | > 20 | > 20 | > 20 | > 20 | > 20 | 16.3 | 19.8 | > 20 | > 20 | > 20 | > 20 | > 20 | > 20 | > 20 | > 20 | IC50 (OS-RC-2): 2.61 µM; IC50 (P31-FUJ): > 20 µM; IC50 (REH): > 20 µM; IC50 (RL): > 20 µM; IC50 (Raji): > 20 µM; IC50 (SK-MM-2): > 20 µM; IC50 (SNU-C1): > 20 µM; IC50 (8-MG-BA): > 20 µM; IC50 (BC-3): 19.5 µM; IC50 (C8166): > 20 µM; IC50 (THP-1): > 20 µM; IC50 (U-698-M): > 20 µM; IC50 (WSU-NHL): > 20 µM; IC50 (YT): > 20 µM; IC50 (CAS-1): > 20 µM; IC50 (CESS): 5.71 µM
3 | CNC(=O)c1cc(Oc2ccc(NC(=O)Nc3ccc(Cl)c(C(F)(F)F)c3)cc2)ccn1 [SORAFENIB] | > 4 | > 4 | 0.907 | > 4 | 2.75 | > 4 | > 4 | > 4 | > 4 | > 4 | 0.00418 | > 4 | > 4 | > 4 | > 4 | > 4 | > 4 | > 4 | > 4 | > 4 | IC50 (OS-RC-2): > 4 µM; IC50 (P31-FUJ): > 4 µM; IC50 (REH): > 4 µM; IC50 (RL): > 4 µM; IC50 (Raji): > 4 µM; IC50 (SK-MM-2): > 4 µM; IC50 (SNU-C1): > 4 µM; IC50 (8-MG-BA): > 4 µM; IC50 (BC-3): > 4 µM; IC50 (C8166): > 4 µM; IC50 (THP-1): > 4 µM; IC50 (U-698-M): > 4 µM; IC50 (WSU-NHL): > 4 µM; IC50 (YT): > 4 µM; IC50 (CAS-1): > 4 µM; IC50 (CESS): > 4 µM
